Experimental data as given in patent US6884577B2, “Methods for screening compounds for estrogenic activity” (The Regents of the University of California, priority 1993, dated 2005).

Key:
[1] = test system: ER activation of AP-1 (Coll73-LUC); assay: Inhibitor screen: ER transiently transfected with Coll73-LUC in HeLa or HepG2 cells, hormone plus prospective inhibitor; format: cell-based
Experimental: (§1) An estrogen receptor (ER) was transiently transfected into either HeLa or HepG2 cells along with an AP-1 responsive reporter gene, Coll73-LUC. The transformed cells were then contacted with antiestrogens or estrogen in combination with prospective inhibitor drugs. […] Luciferase was measured in cell extracts as an indication of AP-1 dependent promoter activity.

[2] = test system: HE15 activation of AP-1 activity; assay: Inhibitor screen: HE15 (constitutive ER) activation of AP-1 activity; format: cell-based; settings: HeLa cells
Experimental: as §1

[3] = test system: human ER at the AP-1 site of the collagenase promoter (coll73); assay: Coll73-LUC luciferase reporter (collagenase promoter with AP-1 site) in cells transfected with human ER expression vector HEO; format: cell-based; settings: for Coll73 Luciferase Activity: relative to no ER; for half maximal dose relative to that for estrogen, induction of coll73-LUC: HeLa cells, 5 μg ER expression vector, FIG. 3B
Experimental: All reporter genes described below have been modified by digestion with EcoR I and Ndel to remove a AP-I site in the backbone of pUG. […] Coll73-LUC was constructed by cloning a BamHI/Pvull fragment, that spanned the luciferase transcription unit, from pMG3 into coll73, which had been digested with BamHI and SmaI to remove the CAT transcription unit.
(§2) Cells were maintained and transfected as previously described in Webb et al., supra. […] F9 cells were seeded at 30% confluence upon 1.5 cm dishes and transfected overnight by calcium phosphate coprecipitation with 5 μg reporter gene, 1 μg actin β-HCG, and 1 μg of HEO, 300 ng each of c-jun and c-fos expression vectors. The cells were glycerol shocked and refed in growth medium containing hormone or ethanolic vehicle.
(§3) CAT assays were carried out as described in Webb et al., except that the cells were harvested one to two days after transfection instead of three. CAT activities were defined as the increase in cpm per hour at room temperature (corrected for background) per 100 μl of cell extract, normalized to production of 100 standard units of βHCG, from a co-transfected reporter gene, actin-HCG. […] Light units were defined as the luciferase activity per 100 μl of cell extract per 100 standard units of βHCG. Relative luciferase activities were calculated with respect to the results that were obtained in the absence of ER and hormone, which was set at 1 unit. For the data presented in Table I triplicate points were determined.
In each case, the cells were transfected with different amounts of the human ER expression vector HEO to determine the optimal response.

[4] = test system: ER at classical ERE; assay: Reporter genes containing classical EREs (ERE-coll60, ERE-tk) in cells with ER; format: cell-based, human
Experimental: FIGS. 2A-2C show antiestrogen stimulation of expression in an intact AP-1 Site, but not at classical EREs. […] Representations, at left, show the human collagenase promoter (shaded) and the consensus AP-1 site. CAT activities were from cells maintained in the absence of hormone or saturating concentrations of ICI 164,384 (ICI, 1 μM), tamoxifen (5 μM) or estradiol ([…]). CAT activity is normalized to a transfection control with the actin promoter driving expression of βHCG. Single representative experiments are shown, error bars represent standard deviation of triplicate hormone treatments.
All reporter genes described below have been modified by digestion with EcoR I and Ndel to remove a AP-I site in the backbone of pUG. Thus, Coll73 and Coll60 are formerly_Coll73 and_Coll60 (Lopez et al. Mol. Cell. Biol. 13:3042-930 (1993)). Coll73-LUC was constructed by cloning a BamHI/Pvull fragment, that spanned the luciferase transcription unit, from pMG3 into coll73, which had been digested with BamHI and SmaI to remove the CAT transcription unit. EREcoll60 and EREcoll73 was prepared by ligation of a consensus ERE ([…], SEQ ID NO:3), into the HindIII site upstream of coll60 and coll73, respectively. All other reporter genes have been previously described (Webb et al. Mol. Endocrinol. 6:157-16725 (1992): and Lopez et al., supra).
Cells were maintained and transfected as previously described in Webb et al., supra. Hormones were added two hours after plating in the following concentrations, estradiol 100 nM, ICI 164,384 1 μM, tamoxifen 5 μM, to ensure saturation of the response. F9 cells were seeded at 30% confluence upon 1.5 cm dishes and transfected overnight by calcium phosphate coprecipitation with 5 μg reporter gene, 1 μg actin β-HCG, and 1 μg of HEO, 300 ng each of c-jun and c-fos expression vectors. The cells were glycerol shocked and refed in growth medium containing hormone or ethanolic vehicle. In transient transfections, optimal amounts of HEO were employed and were as follows: HeLa (5 μg); NIH3T3 (1 μg); HepG2 (1 μg); SHM (300 ng); SY5Y (300 ng); CEF (100 ng); CV-1 (3 μg); MDA453 (3 μg); CHO (100 ng) and F9 (1 μg).
CAT assays were carried out as described in Webb et al., except that the cells were harvested one to two days after transfection instead of three. CAT activities were defined as the increase in cpm per hour at room temperature (corrected for background) per 100 μl of cell extract, normalized to production of 100 standard units of βHCG, from a co-transfected reporter gene, actin-HCG. Luciferase assays were performed as described by Brasier et al. Methods Enzymol 216:386-97 (1992)) on similar extracts that were used for CAT assays. Light units were defined as the luciferase activity per 100 μl of cell extract per 100 standard units of βHCG. Relative luciferase activities were calculated with respect to the results that were obtained in the absence of ER and hormone, which was set at 1 unit. For the data presented in Table I triplicate points were determined. Standard deviations were less than 20%.
The activity of antiestrogens in the AP-1 pathway was also compared with their activity in the classical pathway. […] A promoter with both an ERE and an AP-1 site (ERE-coll73 FIG. 2C) gave a large estrogen response, but retained some response to antiestrogens. Another control reporter, in which the tk promoter was regulated by a classical ERE (ERE-tk FIG. 2C) was also activated by estrogen, but not by antiestrogens.

[5] = test system: ER at classical ERE, Ishikawa cells; assay: ERE-coll60CAT reporter in Ishikawa cells; format: cell-based
From the text: Left panel, coll73-CAT response with endogenous ER contrasted with the response of an ERE regulated reporter, ERE-coll60CAT. […] Averages of three individual experiments are shown. […] A single representative experiment with triplicate hormone treatments is shown.
(§4) To further explore this phenomenon, and to test whether similar hormone effects could be detected at physiological levels of ER, the expression of the collagenase promoter in cells that express endogenous ER was examined.

[6] = test system: human ER at the AP-1 site (collagenase promoter, AP-1-tk), HeLa cells; assay: CAT assays of HeLa cells transfected with AP-1 site reporter genes and human ER expression vector; format: cell-based
Experimental: Representations, at left, show the human collagenase promoter (shaded) and the consensus AP-1 site. […] CAT activity is normalized to a transfection control with the actin promoter driving expression of βHCG. Single representative experiments are shown, error bars represent standard deviation of triplicate hormone treatments.
as §2, §3
To further examine the effects of antiestrogens on the AP-1 directed pathway, reporter genes derived from the human collagenase promoter were transfected into HeLa cells.

[7] = test system: ER at the AP-1 site of the collagenase promoter; assay: Collagenase promoter reporter in cells that express endogenous ER (Ishikawa, MCF-7, ZR-75-1); format: cell-based; settings: for activation of the collagenase promoter (coll73-CAT) / induction of the collagenase promoter (coll73-LUC): Ishikawa cells; for activation of the collagenase promoter (coll73-CAT): endogenous receptor, FIG. 4A; for induction of the collagenase promoter (coll73-LUC): receptor levels raised by transfection
Experimental: Left panel, coll73-CAT response with endogenous ER contrasted with the response of an ERE regulated reporter, ERE-coll60CAT. Right panel, coll73-LUC response with 3 μg co-transfected expression vector for human ER. Averages of three individual experiments are shown. […] A single representative experiment with triplicate hormone treatments is shown.
as §4

[8] = test system: MCF-7 cell; settings: Braacke et al. 1991; cited from earlier work
[9] = test system: ER at classical ERE, ERC1 cells; assay: Estrogenic activity screen: CAT reporter gene linked to a classical ERE in ERC1 cells; format: cell-based, human; settings: ICI 164384 with series 4 compounds
Experimental: A library of hydroxystilbene derivatives as shown in FIG. 9 was screened for estrogenic activity in cell culture assays using a CAT reporter gene linked to a classical ERE in ERC1 cells as described in Webb et al., supra. After transient transfection with CAT reporter genes, each hydroxystilbene was added to the cultured ERC 1 cells. ER-regulated response was compared either to treatment with 17β-estradiol as a calibration standard or to treatment with an ethanolic vehicle.
Dose response experiments were performed on the series 4 compounds over a concentration range of 0-100 μM (FIG. 1).

[10] = CEF (fibroblast), no hormone, saturating hormone
[11] = CHO (ovary), no hormone, saturating hormone
[12] = CV-1 (kidney), no hormone, saturating hormone
[13] = F9 (teratocarcinoma), no hormone, unliganded ER gave 3.2
[14] = HELA (cervix), no hormone = 1, ICI 1 μM, tamoxifen 5 μM, estradiol 100 nM
[15] = HEP G2 (liver), no hormone, saturating hormone
[16] = MDA453 (breast), no hormone, saturating hormone
[17] = NIH 3T3 (fibroblast), no hormone, saturating hormone
[18] = SHM (myometrium), no hormone, saturating hormone
[19] = SY5Y (neuroblastoma), no hormone, saturating hormone

Compound: Nc1nc2nc[nH]c2c(=S)[nH]1 [6-thioguanine]
- inhibition of hormone action at AP-1 sites [1]: inhibit hormone action at AP-1 sites
- inhibition of the activation of AP-1 activity by HE15 [2]: inhibit

Compound: Nc1ncc2[nH]cnc2n1 [2-aminopurine]
- inhibition of hormone action at AP-1 sites [1]: inhibit hormone action at AP-1 sites
- inhibition of the activation of AP-1 activity by HE15 [2]: inhibit

Compound: O=S(=O)(NCCNC/C=C/c1ccc(Br)cc1)c1cccc2cnccc12 [H89]
- inhibition of the activation of AP-1 activity by HE15 [2]: did not

Compound: calphostin c
- inhibition of the activation of AP-1 activity by HE15 [2]: did not

Compound: CC/C(=C(\c1ccccc1)c1ccc(OCCN(C)C)cc1)c1ccccc1 [tamoxifen]
- Coll73 Luciferase Activity [3, 10]: 2.2
- Coll73 Luciferase Activity [3, 11]: 2.2
- Coll73 Luciferase Activity [3, 12]: 5.3
- Coll73 Luciferase Activity [3, 13]: 1.1
- Coll73 Luciferase Activity [3, 14]: 7.4
- Coll73 Luciferase Activity [3, 15]: 6.5
- half maximal dose relative to that for estrogen, induction of coll73-LUC [3]: ~100 times
- Coll73 Luciferase Activity [3, 16]: 2.1
- Coll73 Luciferase Activity [3, 17]: 3.1
- Coll73 Luciferase Activity [3, 18]: 2.2
- Coll73 Luciferase Activity [3, 19]: 2.1
- inductions at classical EREs, % of estrogen ([4]; CEF cells): 30%
- inductions at classical EREs, % of estrogen ([4]; CV-1 cells): 30%
- inductions of ERE-coll60 activity relative to those obtained with estrogen ([4]; HeLa cells, and most other cases): less than 3%
- inductions at classical EREs, % of estrogen ([4]; MDA453 cells): 30%
- expression of ERE-coll60 [5]: neither ICI nor tamoxifen activated
- activation of transcription, collagenase AP-1 site upstream of the herpes virus tk promoter [6]: able to activate transcription
- activation of the collagenase promoter (coll517, coll73) ([6]; transiently expressed human ER, FIG. 2A): more potent an activator than estrogen
- activation of the collagenase promoter (coll73-CAT) [7]: activated
- induction of the collagenase promoter (coll73-LUC) [7]: inductions became larger
- activation of the collagenase promoter ([7]; MCF-7 cells, endogenous ER, FIG. 4B): not tamoxifen
- activation of the collagenase promoter ([7]; ZR-75-1 cells): The same pattern occurred

Compound: O=c1c(-c2ccc(O)cc2)coc2cc(O)cc(O)c12 [genistein]
- inhibition of hormone action at AP-1 sites [1]: inhibit hormone action at AP-1 sites
- inhibition of the activation of AP-1 activity by HE15 [2]: inhibit

Compound: CC/C(=C(\c1ccccc1)c1ccc(OCCN(C)C)cc1)c1ccc(O)cc1 [4′-hydroxytamoxifen]
- MCF-7 cell invasion activity of a re-constituted basement membrane [8]: stimulated

Compound: CCCCN(C)C(=O)CCCCCCCCCC[C@@H]1Cc2cc(O)ccc2[C@H]2CC[C@]3(C)[C@@H](O)CC[C@H]3[C@H]12 [ICI 164,384]
- Coll73 Luciferase Activity [3, 10]: 3.2
- Coll73 Luciferase Activity [3, 11]: 1.8
- Coll73 Luciferase Activity [3, 12]: 3.1
- Coll73 Luciferase Activity [3, 13]: 2.4
- Coll73 Luciferase Activity [3, 14]: 3.7
- Coll73 Luciferase Activity [3, 15]: 5.2
- half maximal dose relative to that for estrogen, induction of coll73-LUC [3]: about 10 times
- Coll73 Luciferase Activity [3, 16]: 1.1
- Coll73 Luciferase Activity [3, 17]: 3.0
- Coll73 Luciferase Activity [3, 18]: 1.9
- Coll73 Luciferase Activity [3, 19]: 2.3
- activity at classical EREs ([4]; range of cell types of Table I (data not shown)): pure antagonist
- MCF-7 cell invasion activity of a re-constituted basement membrane [8]: blocked
- expression of ERE-coll60 [5]: neither ICI nor tamoxifen activated
- activation of transcription, collagenase AP-1 site upstream of the herpes virus tk promoter [6]: able to activate transcription
- activation of the collagenase promoter (coll73-CAT) [7]: usually inactive
- induction of the collagenase promoter (coll73-LUC) [7]: inductions became detectable
- inhibition of the series 4 estrogenic activity [9]: inhibit the estrogenic activity of all the series 4 compounds
